Experimental findings from US10538521B2, “Pyrimidine derivative having antimalarial activity” (CARNA BIOSCIENCES, INC., priority 2016, dated 2020) are described below.

Bounds are passed on as bounds.

Assay [1] concerns K1 strain, a drug resistant strain of Plasmodium falciparum. Description: In vitro antimalarial assay (p-LDH, Malstat), K1 strain. In kind it is cell-based. The following applies: P. falciparum K1 (drug resistant), 72 h culture, p-LDH readout, read-out: Antimalarial activity (IC50 value), Strain K1. Summed up: (§1)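 IC50 derived from concentration-response of parasite lactate dehydrogenase signal (Malstat reagent, NBT/PES formazan at 655 nm) after freeze-thaw lysis. Infected erythrocytes (hematocrit 2%, parasitaemia 0.5 or 1%) exposed 72 h to 12.5–0.0001 μM final compound under 3% O2-4% CO2-93% N2, FCR3 and K1 alike.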

In assay [2] the test system is FCR3 strain, a drug sensitive strain of Plasmodium falciparum. Briefly: In vitro antimalarial assay (p-LDH, Malstat), FCR3 strain. In kind it is cell-based. Particulars: P. falciparum FCR3 (drug sensitive), 72 h culture, p-LDH readout, read-out: Antimalarial activity (IC50 value), Strain FCR3. The method in brief:
as §1

What is called IC50 is the point on the concentration scale where inhibition reaches its midpoint. As to `Cc1cc(C)nc(Nc2nc(Nc3ccn4ccnc4c3)cc(N3CC4(COC4)C3)n2)c1` [Example 178, N2-(4,6-dimethylpyridin-2-yl)-N4-(imidazo[1,2-a]pyridin-7-yl)-6-(2-oxa-6-azaspiro[3.3]heptan-6-yl)pyrimidine-2,4-diamine], the IC50 in assay [1] and in assay [2] was less than 100 nM in each case.

With `CCCCc1cccc(Nc2nc(Nc3ccn4ccnc4c3)cc(N3C[C@H]4CCC[C@H]4C3)n2)n1` [Example 179, N2-(6-butylpyridin-2-yl)-6-((3aR,6aS)-hexahydrocyclopenta[c]pyrrol-2(1H)-yl)-N4-(imidazo [1,2-a]pyridin-7-yl)pyrimidine-2,4-diamine], the IC50 in assay [1] and in assay [2] was 100 to 1000 nM each time.

For `CCCCc1cccc(Nc2nc(Nc3ccn4ccnc4c3)cc(N3CC(C)(C)C3)n2)n1` [Example 180, N2-(6-butylpyridin-2-yl)-6-(3,3-dimethylazetidin-1-yl)-N4-(imidazo[1,2-a]pyridin-7-yl) pyrimidine-2,4-diamine], the IC50 in assay [1] and in assay [2] was less than 100 nM each time.

In the case of `CCCCc1cccc(Nc2nc(Nc3ccn4ccnc4c3)cc(N3CC4(COC4)C3)n2)n1` [Example 181, N2-(6-butylpyridin-2-yl)-N4-(imidazo[1,2-a]pyridin-7-yl)-6-(2-oxa-6-azaspiro[3.3]heptan-6-yl)pyrimidine-2,4-diamine], the IC50 was less than 100 nM in assay [1] and 100 to 1000 nM in assay [2].

For the compound `Cc1cc(C)nc(Nc2nc(Nc3ccn4ccnc4c3)cc(N3CCC(C)(C)CC3)n2)c1` [Example 182, 6-(4,4-dimethylpiperidin-1-yl)-N2-(4,6-dimethylpyridin-2-yl)-N4-(imidazo[1,2-a]pyridine-7-yl)pyrimidine-2,4-diamine], the IC50 in assay [1] and in assay [2] was 100 to 1000 nM each time.

In the case of `Cc1cc(C)nc(Nc2nc(Nc3ccn4ccnc4c3)cc(N3CCC(C)CC3)n2)c1` [Example 183, N2-(4,6-dimethylpyridin-2-yl)-N4-(imidazo[1,2-a]pyridin-7-yl)-6-(4-methylpiperidin-1-yl) pyrimidine-2,4-diamine], the IC50 in assay [1] and in assay [2] was 100 to 1000 nM throughout.

Take `Cc1cc(C)nc(Nc2nc(Nc3ccn4ccnc4c3)cc(N3CCCC(C)C3)n2)c1` (centres unmarked) [Example 184, N2-(4,6-dimethylpyridin-2-yl)-N4-(imidazo[1,2-a]pyridin-7-yl)-6-(3-methylpiperidin-1-yl) pyrimidine-2,4-diamine]: the IC50 in assay [1] and in assay [2] was 100 to 1000 nM throughout.

Regarding `Cc1cc(C)nc(Nc2nc(Nc3ccn4ccnc4c3)cc(N3CC[C@H](F)C3)n2)c1` [Example 185, (S)-N2-(4,6-dimethylpyridin-2-yl)-6-(3-fluoropyrrolidin-1-yl)-N4-(imidazo[1,2-a]pyridin-7-yl) pyrimidine-2,4-diamine], the IC50 in assay [1] and in assay [2] was less than 100 nM each time.

Take `Cc1cc(C)nc(Nc2nc(Nc3ccn4ccnc4c3)cc(N3CC[C@@H](F)C3)n2)c1` [Example 186, (R)-N2-(4,6-dimethylpyridin-2-yl)-6-(3-fluoropyrrolidin-1-yl)-N4-(imidazo[1,2-a]pyridin-7-yl) pyrimidine-2,4-diamine]: the IC50 in assay [1] and in assay [2] was less than 100 nM each time.

In the case of `CCCCc1cc(C)cc(Nc2nc(Nc3ccn4ccnc4c3)cc(N3CCCCC3)n2)n1` [Example 187, N2-(6-butyl-4-methylpyridin-2-yl)-N4-(imidazo[1,2-a]pyridin-7-yl)-6-(piperidin-1-yl) pyrimidine-2,4-diamine], the concentration for half-maximal inhibition (IC50) in assay [1] and in assay [2] was 100 to 1000 nM in each case.

For the compound `Cc1cc(CC(C)C)nc(Nc2nc(Nc3ccn4ccnc4c3)cc(N3CCCCC3)n2)c1` [Example 188, N4-(imidazo[1,2-a]pyridin-7-yl)-N2-(6-isobutyl-4-methylpyridin-2-yl)-6-(piperidin-1-yl) pyrimidine-2,4-diamine], the concentration for half-maximal inhibition (IC50) in assay [1] and in assay [2] was less than 100 nM throughout.

`CCc1cc(C)cc(Nc2nc(Nc3ccn4ccnc4c3)cc(N3CCCCC3)n2)n1` [Example 189, N2-(6-ethyl-4-methylpyridin-2-yl)-N4-(imidazo[1,2-a]pyridin-7-yl)-6-(piperidin-1-yl)pyrimidine-2,4-diamine]: the IC50 in assay [1] and in assay [2] was less than 100 nM each time.

As for `COc1cc(C)nc(Nc2nc(Nc3ccn4ccnc4c3)cc(N3CCCCC3)n2)c1` [Example 190, N4-(imidazo[1,2-a]pyridin-7-yl)-N2-(4-methoxy-6-methylpyridin-2-yl)-6-(piperidin-1-yl) pyrimidine-2,4-diamine], the IC50 in assay [1] and in assay [2] was less than 100 nM each time.

For `COc1cc(CF)nc(Nc2nc(Nc3ccn4ccnc4c3)cc(N3CCCCC3)n2)c1` [Example 191, N2-(6-(fluoromethyl)-4-methoxypyridin-2-yl)-N4-(imidazo [1,2-a]pyridin-7-yl)-6-(piperidin-1-yl)pyrimidine-2,4-diamine], the IC50 in assay [1] and in assay [2] was 100 to 1000 nM throughout.

Turning to `OCc1cccc(Nc2nc(Nc3ccn4ccnc4c3)cc(N3CCCCC3)n2)n1` [Example 192, (6-{[4-(imidazo[1,2-a]pyridin-7-ylamino)-6-(piperidin-1-yl)pyrimidin-2-yl]amino}pyridin-2-yl)methanol], the IC50 in assay [1] was 1000 to 10000 nM; in assay [2], 100 to 1000 nM.

As to `Cc1cc(C)nc(Nc2nc(Nc3ccn4ccnc4c3)cc(N3C[C@@H]4OCCO[C@@H]4C3)n2)c1` [Example 194, N2-(4,6-dimethylpyridin-2-yl)-N4-(imidazo[1,2-a]pyridin-7-yl)-6-[(4aR,7aS)-tetrahydro-2H-[1,4]dioxino[2,3-c]pyrrol-6(3H)-yl]pyrimidine-2,4-diamine], the IC50 in assay [1] and in assay [2] was less than 100 nM in each case.

Take `Cc1cc(C)nc(Nc2nc(Nc3ccccc3)cc(Nc3ccn4ccnc4c3)n2)c1` [Example 195, N2-(4,6-dimethylpyridin-2-yl)-N4-(imidazo[1,2-a]pyridin-7-yl)-N6-phenylpyrimidine-2,4,6-triamine]: the IC50 in assay [1] and in assay [2] was 100 to 1000 nM in each case.

`Cc1cc(C)nc(Nc2nc(NCc3ccccc3)cc(Nc3ccn4ccnc4c3)n2)c1` [Example 196, N4-benzyl-N2-(4,6-dimethylpyridin-2-yl)-N6-(imidazo[1,2-a]pyridin-7-yl)pyrimidine-2,4,6-triamine]: the IC50 in assay [1] and in assay [2] was less than 100 nM in each case.

As for `CCCCc1cc(OC)cc(Nc2nc(Nc3ccn4ccnc4c3)cc(N3CCCCC3)n2)n1` [Example 197, N2-(6-butyl-4-methoxypyridin-2-yl)-N4-(imidazo[1,2-a]pyridin-7-yl)-6-(piperidin-1-yl) pyrimidine-2,4-diamine], the IC50 in assay [1] and in assay [2] was 100 to 1000 nM in each case.

Turning to `Cc1cc(C)nc(Nc2nc(Nc3ccn4ccnc4c3)cc(NN3CCCCC3)n2)c1` [Example 198, N2-(4,6-dimethylpyridin-2-yl)-N4-(imidazo[1,2-a]pyridin-7-yl)-N6-(piperidin-1-yl)pyrimidine-2,4,6-triamine], the IC50 in assay [1] was 100 to 1000 nM; in assay [2], less than 100 nM.

For the compound `Cc1cc(C)nc(Nc2nc(Nc3ccn4ccnc4c3)cc(NN3CCOCC3)n2)c1` [Example 199, N2-(4,6-dimethylpyridin-2-yl)-N4-(imidazo[1,2-a]pyridin-7-yl)-N6-morpholinopyrimidine-2,4,6-triamine], the IC50 in assay [1] and in assay [2] was less than 100 nM throughout.

Turning to `Cc1cc(C)nc(Nc2nc(Nc3ccn4ccnc4c3)cc(Nn3cccc3)n2)c1` [Example 200, N2-(4,6-dimethylpyridin-2-yl)-N4-(imidazo[1,2-a]pyridin-7-yl)-N6-(1H-pyrrol-1-yl)pyrimidine-2,4,6-triamine], the IC50 in assay [1] and in assay [2] was 100 to 1000 nM throughout.

Regarding `CCCCc1cc(CC)cc(Nc2nc(Nc3ccn4ccnc4c3)cc(N3CCCCC3)n2)n1` [Example 201, N2-(6-butyl-4-ethylpyridin-2-yl)-N4-(imidazo[1,2-a]pyridin-7-yl)-6-(piperidin-1-yl) pyrimidine-2,4-diamine], the IC50 in assay [1] and in assay [2] was 100 to 1000 nM each time.

Regarding `Cc1nc(Nc2nc(Nc3ccn4ccnc4c3)cc(N3CCCCC3)n2)ccc1F` [Example 202, N2-(5-fluoro-6-methylpyridin-2-yl)-N4-(imidazo[1,2-a]pyridin-7-yl)-6-(piperidin-1-yl) pyrimidine-2,4-diamine], the IC50 in assay [1] and in assay [2] was 100 to 1000 nM each time.

In the case of `Cc1nc(Nc2nc(Nc3ccn4ccnc4c3)cc(N3CCCCC3)n2)ccc1Cl` [Example 203, N2-(5-chloro-6-methylpyridin-2-yl)-N4-(imidazo[1,2-a]pyridin-7-yl)-6-(piperidin-1-yl) pyrimidine-2,4-diamine], the IC50 in assay [1] and in assay [2] was 100 to 1000 nM throughout.

Turning to `Cc1cc(Nc2nc(Nc3ccn4ccnc4c3)cc(N3CCCCC3)n2)ncc1F` [Example 204, N2-(5-fluoro-4-methylpyridin-2-yl)-N4-(imidazo[1,2-a]pyridin-7-yl)-6-(piperidin-1-yl) pyrimidine-2,4-diamine], the IC50 in assay [1] and in assay [2] was 100 to 1000 nM throughout.

As to `Cc1cc(Cl)cc(Nc2nc(Nc3ccn4ccnc4c3)cc(N3CCCCC3)n2)n1` [Example 205, N2-(4-chloro-6-methylpyridin-2-yl)-N4-(imidazo[1,2-a]pyridin-7-yl)-6-(piperidin-1-yl) pyrimidine-2,4-diamine], the IC50 in assay [1] and in assay [2] was 100 to 1000 nM throughout.

For `Cc1cc(C)nc(Nc2nc(Nc3ccn4ccnc4c3)cc(NN3CCCC3)n2)c1` [Example 206, N2-(4,6-dimethylpyridin-2-yl)-N4-(imidazo[1,2-a]pyridin-7-yl)-N6-(pyrrolidin-1-yl)pyrimidine-2,4,6-triamine], the IC50 in assay [1] and in assay [2] was less than 100 nM throughout.
